Data as given in the NIST ThermoML archive (doi:10.1021/je401120a).
± gives the expanded uncertainty stated by the source.

Test: xn = mol fraction of the nth substance listed
Conditions: 101 kPa, Liquid; for electrical conductivity: Crison conductimeter (model GLP31); for speed of sound: Pulse-echo method; for mass density: Vibrating tube method

CCC[n+]1ccccc1.F[B-](F)(F)F [1-propylpyridinium tetrafluoroborate] + CO
Conditions | electrical conductivity [S/m] | mass density [kg/m3] | speed of sound [m/s] | viscosity [mPa·s]
313.15 K, x1 = 0.028 | – | 829.037 ± 0.39 | 1104.3 ± 1.2 | –
313.15 K, x1 = 0.0313 | 3.41 ± 0.07 | – | – | –
313.15 K, x1 = 0.0365 | 3.77 ± 0.08 | – | – | –
313.15 K, x1 = 0.0422 | 4.13 ± 0.08 | – | – | –
313.15 K, x1 = 0.0505 | – | – | – | 0.7578 ± 0.02
313.15 K, x1 = 0.0577 | – | 876.892 ± 0.31 | 1151.5 ± 1.2 | –
313.15 K, x1 = 0.0658 | 4.95 ± 0.1 | – | – | –
313.15 K, x1 = 0.0775 | 5.27 ± 0.11 | – | – | –
313.15 K, x1 = 0.0894 | 5.59 ± 0.11 | – | – | –
313.15 K, x1 = 0.0967 | – | 927.831 ± 0.26 | 1204.8 ± 1.2 | –
313.15 K, x1 = 0.0993 | – | – | – | 1.273 ± 0.031
313.15 K, x1 = 0.1294 | 6.03 ± 0.12 | – | – | –
313.15 K, x1 = 0.1409 | 6.12 ± 0.12 | – | – | –
313.15 K, x1 = 0.1459 | – | 979.474 ± 0.23 | 1261.3 ± 1.3 | –
313.15 K, x1 = 0.1703 | 6.3 ± 0.13 | – | – | –
313.15 K, x1 = 0.191 | – | – | – | 2.523 ± 0.058
313.15 K, x1 = 0.1952 | – | 1020.19 ± 0.19 | 1314.3 ± 1.3 | –
313.15 K, x1 = 0.2002 | 6.26 ± 0.13 | – | – | –
313.15 K, x1 = 0.2456 | 6.05 ± 0.12 | – | – | –
313.15 K, x1 = 0.2819 | 5.68 ± 0.11 | – | – | –
313.15 K, x1 = 0.291 | – | – | – | 4.303 ± 0.098
313.15 K, x1 = 0.3213 | – | 1094.6 ± 0.24 | 1409.3 ± 1.4 | –
313.15 K, x1 = 0.3507 | 5.15 ± 0.1 | – | – | –
313.15 K, x1 = 0.3918 | – | – | – | 6.052 ± 0.13
313.15 K, x1 = 0.3937 | 4.76 ± 0.1 | – | – | –
313.15 K, x1 = 0.4002 | – | 1127.34 ± 0.3 | 1453.2 ± 1.5 | –
313.15 K, x1 = 0.4334 | 4.32 ± 0.09 | – | – | –
313.15 K, x1 = 0.464 | 3.91 ± 0.08 | – | – | –
313.15 K, x1 = 0.4929 | – | – | – | 8.501 ± 0.18
313.15 K, x1 = 0.4965 | – | 1157.84 ± 0.41 | 1492.7 ± 1.6 | –
313.15 K, x1 = 0.5398 | 3.26 ± 0.07 | – | – | –
313.15 K, x1 = 0.5988 | – | 1183.22 ± 0.56 | 1527.3 ± 1.8 | –
313.15 K, x1 = 0.6117 | – | – | – | 12.48 ± 0.25
313.15 K, x1 = 0.635 | 2.5 ± 0.05 | – | – | –
313.15 K, x1 = 0.6904 | – | 1201.32 ± 0.71 | 1550.3 ± 1.9 | –
313.15 K, x1 = 0.7331 | – | – | – | 20 ± 0.4
313.15 K, x1 = 0.7918 | 1.5 ± 0.03 | – | – | –
313.15 K, x1 = 0.7923 | – | – | – | 25.3 ± 0.51
313.15 K, x1 = 0.8011 | – | 1218.9 ± 0.92 | 1573.6 ± 2 | –
313.15 K, x1 = 0.8425 | – | – | – | 31.76 ± 0.64
313.15 K, x1 = 0.8824 | – | 1229.83 ± 1.1 | 1589.4 ± 2.2 | –
313.15 K, x1 = 0.894 | 1.05 ± 0.021 | – | – | –
313.15 K, x1 = 0.8956 | – | – | – | 38.87 ± 0.78
313.15 K, x1 = 0.9384 | 0.94 ± 0.019 | – | – | –
313.15 K, x1 = 0.94 | – | 1236.33 ± 1.2 | 1598.5 ± 2.2 | –
313.15 K, x1 = 0.9447 | – | – | – | 46.64 ± 0.94
313.15 K, x1 = 1 | 0.799 ± 0.016 | 1242.43 ± 1.4 | 1606.3 ± 2.4 | 56.02 ± 0.89
323.15 K, x1 = 0.028 | – | 820.035 ± 0.39 | 1073.8 ± 1.2 | –
323.15 K, x1 = 0.0313 | 3.87 ± 0.08 | – | – | –
323.15 K, x1 = 0.0365 | 4.25 ± 0.09 | – | – | –
323.15 K, x1 = 0.0422 | 4.68 ± 0.09 | – | – | –
323.15 K, x1 = 0.0505 | – | – | – | 0.673 ± 0.018
323.15 K, x1 = 0.0577 | – | 867.868 ± 0.32 | 1123.5 ± 1.2 | –
323.15 K, x1 = 0.0658 | 5.62 ± 0.11 | – | – | –
323.15 K, x1 = 0.0775 | 6 ± 0.12 | – | – | –
323.15 K, x1 = 0.0894 | 6.37 ± 0.13 | – | – | –
323.15 K, x1 = 0.0967 | – | 918.92 ± 0.27 | 1178.7 ± 1.2 | –
323.15 K, x1 = 0.0993 | – | – | – | 1.009 ± 0.025
323.15 K, x1 = 0.1294 | 6.98 ± 0.14 | – | – | –
323.15 K, x1 = 0.1409 | 7.05 ± 0.14 | – | – | –
323.15 K, x1 = 0.1459 | – | 970.736 ± 0.23 | 1237 ± 1.3 | –
323.15 K, x1 = 0.1703 | 7.23 ± 0.14 | – | – | –
323.15 K, x1 = 0.191 | – | – | – | 1.915 ± 0.045
323.15 K, x1 = 0.1952 | – | 1011.68 ± 0.19 | 1291 ± 1.3 | –
323.15 K, x1 = 0.2002 | 7.2 ± 0.14 | – | – | –
323.15 K, x1 = 0.2456 | 7 ± 0.14 | – | – | –
323.15 K, x1 = 0.2819 | 6.64 ± 0.13 | – | – | –
323.15 K, x1 = 0.291 | – | – | – | 3.255 ± 0.075
323.15 K, x1 = 0.3213 | – | 1086.6 ± 0.24 | 1385.4 ± 1.4 | –
323.15 K, x1 = 0.3507 | 6.05 ± 0.12 | – | – | –
323.15 K, x1 = 0.3918 | – | – | – | 4.475 ± 0.1
323.15 K, x1 = 0.3937 | 5.63 ± 0.11 | – | – | –
323.15 K, x1 = 0.4002 | – | 1119.59 ± 0.3 | 1429.5 ± 1.5 | –
323.15 K, x1 = 0.4334 | 5.12 ± 0.1 | – | – | –
323.15 K, x1 = 0.464 | 4.78 ± 0.1 | – | – | –
323.15 K, x1 = 0.4929 | – | – | – | 6.13 ± 0.13
323.15 K, x1 = 0.4965 | – | 1150.3 ± 0.41 | 1467.3 ± 1.6 | –
323.15 K, x1 = 0.5398 | 3.97 ± 0.08 | – | – | –
323.15 K, x1 = 0.5988 | – | 1175.76 ± 0.55 | 1503.9 ± 1.8 | –
323.15 K, x1 = 0.6117 | – | – | – | 8.91 ± 0.19
323.15 K, x1 = 0.635 | 3.15 ± 0.06 | – | – | –
323.15 K, x1 = 0.6904 | – | 1193.84 ± 0.7 | 1527.1 ± 1.9 | –
323.15 K, x1 = 0.7331 | – | – | – | 14.27 ± 0.29
323.15 K, x1 = 0.7918 | 1.96 ± 0.039 | – | – | –
323.15 K, x1 = 0.7923 | – | – | – | 18.12 ± 0.37
323.15 K, x1 = 0.8011 | – | 1211.54 ± 0.91 | 1550.5 ± 2 | –
323.15 K, x1 = 0.8425 | – | – | – | 22.39 ± 0.46
323.15 K, x1 = 0.8824 | – | 1222.55 ± 1.1 | 1566.5 ± 2.2 | –
323.15 K, x1 = 0.894 | 1.48 ± 0.03 | – | – | –
323.15 K, x1 = 0.8956 | – | – | – | 26.94 ± 0.55
323.15 K, x1 = 0.9384 | 1.34 ± 0.027 | – | – | –
323.15 K, x1 = 0.94 | – | 1229.15 ± 1.2 | 1575 ± 2.2 | –
323.15 K, x1 = 0.9447 | – | – | – | 31.72 ± 0.65
323.15 K, x1 = 1 | 1.15 ± 0.023 | 1235.31 ± 1.4 | 1583.3 ± 2.3 | 36.99 ± 0.76
